First the molecules themselves.
B1: FPDH: purified NADH-dependent enzyme from Candida maris IFO 10003 reducing 5-acetylfuro[2,3-c]pyridine to the (R)-alcohol; SEQ ID NO:1 (protein, listed as Candida maris)
chain: MSYNFANKVLIVTGGLSGIGLAVAKKFLQLGAKVTISDISATEKYNTVVGEFKTEGIDVKNVQYIQADASKEADNEKLISETLSAFGDLDYVCANAGIATFTQTTDISYDVWRKVTSINLDGVFMLDKLAAQYFLSKNKPGAIVNMGSIHSYVAAPGLSHYGAAKGGLKLLTQTMALEYAAKGIRVNSVNPGYIKTPLLDICPKEHMDYLITQHPIGRLGKPEEIASAVAFLCSDEATFINGISLLVDGGYTAR

One series relates to FPDH. Nature of the series: Oxidation activity of FPDH against various compounds as substrates. The class given is biochemical, Candida maris IFO 10003. To be noted: substrate 1 mM; 5-(1-(R)-hydroxyethyl)furo[2,3-c]pyridine = 100%; 0.25 mM NAD+, pH 8.0, 30° C. The protocol: Further, FPDH was examined for oxidation activity against various compounds. The oxidation activity was measured by allowing the reaction to proceed at 30° C. for 3 minutes in 3.0 ml of a reaction mixture containing 1 mM substrate, 0.25 mM NAD^+, 0.3% (vol/vol) dimethyl sulfoxide and 0.05 ml of the enzyme solution in 100 mM phosphate buffer (pH 8.0) and measuring the increase in absorbance at the wavelength 340 nm. These conditions were employed as standard reaction conditions for oxidizing activity substrate measurement. The enzyme activity reducing 1 μmole of NAD^+ to NADH in one minute under these reaction conditions was defined as 1 unit. The data shown in Table 10 are relative activities with the oxidation activity against the substrate 5-(1-(R)-hydroxyethyl)furo[2,3-c]pyridine being taken as 100%.
In the case of `CC(O)c1ccccn1` (stereo not shown) [1-(2-Pyridyl)ethanol], the “Relative activity (oxidation activity)” value is 23%.
In the case of `CC(O)c1cccnc1` (stereo not shown) [1-(3-Pyridyl)ethanol], the “Relative activity (oxidation activity)” value was found to be 110%.
Still for that read-out and setting: the same measure for `CC(O)c1ccncc1` (stereo not shown) [1-(4-Pyridyl)ethanol]: 24%; for `C=CC(C)O` (stereo not shown) [1-Buten-3-ol]: 261%.
Same read-out and setting: the same measure for `C=CCC(C)O` (stereo not shown) [4-Penten-2-ol]: 172%; for `CC(O)CCc1ccccc1` (stereo not shown) [4-Phenyl-2-butanol]: 219%.
For `C[C@@H](O)c1ccccc1` [(R)-1-Phenylethanol], the “Relative activity (oxidation activity)” value stood at 225%.
The same measure, in the same setting: the same measure for `C[C@@H](O)c1cc2ccoc2cn1` [(R)-5-(1-Hydroxyethyl)furo[2,3-c]pyridine]: 100%; for `CC(C)O` [Isopropanol]: 226%.

The test system of a further series is FPDH. Nature of the series: Optimal temperature and optimal pH for the activity of FPDH. It is filed as biochemical, Candida maris IFO 10003. To be noted: pH varied 3.5 to 9.0; acetate, phosphate and Tris-hydrochloride buffer. As for the experimental part: Hereafter, the reducing activity was measured by allowing the reaction to proceed at 30° C. for 3 minutes in 3.0 ml of a reaction mixture containing 1 mM 5-acetylfuro[2,3-c]pyridine (substrate), 0.25 mM NADH, 0.3% (vol/vol) dimethyl sulfoxide and 0.05 ml of the enzyme solution in 100 mM phosphate buffer (pH 6.5) and measuring the decrease in absorbance at the wavelength 340 nm. These conditions were employed as standard reaction conditions for reducing activity measurement. The enzyme activity oxidizing 1 μmole of NADH to NAD^+ in one minute under these reaction conditions was defined as 1 unit.
Activity measurements were conducted under the standard reaction conditions for reducing activity measurement as described in Example 14 except that the temperature alone was varied from 20 to 80° C.
Activity measurements were conducted under the standard reaction conditions for reducing activity measurement as described in Example 14 while varying the pH within the range of 3.5 to 9.0 using acetate buffer, phosphate buffer and Tris-hydrochloride buffer as the buffer solution.
For B1, the “Optimal pH” value is 5.0-6.0.

For the origin of these results see US7329518B2, “Enzyme for producing optically active pyridineethanol derivatives” (Kaneka Corporation, priority 1999, dated 2008).
